Assay results published in patent publication US7176261B2, “Angiotensin-(1-7) eluting polymer-coated medical device to reduce restenosis and improve endothelial cell function” (Medtronic, Inc., priority 2004, dated 2007).
Marks after values point to notes of the source that are not given here.

How the values were obtained:
ACE = target: T1, ACE (Homo sapiens, UniProt P12821); conditions: after six months of treatment, more than 2,000 patients; cited from earlier work
T1 construct: host or cells: patients (in vivo, endogenous enzyme)

[1] = test system: smooth muscle cell proliferation; conditions: intravenous infusion; cited from earlier work
[2] = test system: rats with uncoated stents implanted in the abdominal aorta; assay: Angiotensin-(1-7) pump study in rat aorta model (uncoated stents, micropump infusion); format: in vivo
Protocol: The effects of Ang-(1-7) on restenosis were studied in rats with uncoated stents implanted in the abdominal aorta with Ang-(1-7) infused by implantable micro pump. Twelve rats per group were implanted with stents and micropumps containing one of three infusion regimens for three weeks. Control rats received saline infusions and the Ang-(1-7) groups received infusion of Ang-(1-7) at 10 μg/kg/hr or 24 μg/kg/hr.
The rats receiving 24 μg/kg/hr, however, scored lower in neointimal level and percentage stenosis (Table 1 and FIG. 7). A 27% reduction in neointimal area was seen between the control rats and those receiving 24 μg/kg/hr Ang-(1-7). Ang-(1-7) has a clear beneficial effect on the restenosis rate.

[3] = Ang-(1-7) infusion 24 μg/kg/hr for three weeks

T1 sequence (P12821 30-1306): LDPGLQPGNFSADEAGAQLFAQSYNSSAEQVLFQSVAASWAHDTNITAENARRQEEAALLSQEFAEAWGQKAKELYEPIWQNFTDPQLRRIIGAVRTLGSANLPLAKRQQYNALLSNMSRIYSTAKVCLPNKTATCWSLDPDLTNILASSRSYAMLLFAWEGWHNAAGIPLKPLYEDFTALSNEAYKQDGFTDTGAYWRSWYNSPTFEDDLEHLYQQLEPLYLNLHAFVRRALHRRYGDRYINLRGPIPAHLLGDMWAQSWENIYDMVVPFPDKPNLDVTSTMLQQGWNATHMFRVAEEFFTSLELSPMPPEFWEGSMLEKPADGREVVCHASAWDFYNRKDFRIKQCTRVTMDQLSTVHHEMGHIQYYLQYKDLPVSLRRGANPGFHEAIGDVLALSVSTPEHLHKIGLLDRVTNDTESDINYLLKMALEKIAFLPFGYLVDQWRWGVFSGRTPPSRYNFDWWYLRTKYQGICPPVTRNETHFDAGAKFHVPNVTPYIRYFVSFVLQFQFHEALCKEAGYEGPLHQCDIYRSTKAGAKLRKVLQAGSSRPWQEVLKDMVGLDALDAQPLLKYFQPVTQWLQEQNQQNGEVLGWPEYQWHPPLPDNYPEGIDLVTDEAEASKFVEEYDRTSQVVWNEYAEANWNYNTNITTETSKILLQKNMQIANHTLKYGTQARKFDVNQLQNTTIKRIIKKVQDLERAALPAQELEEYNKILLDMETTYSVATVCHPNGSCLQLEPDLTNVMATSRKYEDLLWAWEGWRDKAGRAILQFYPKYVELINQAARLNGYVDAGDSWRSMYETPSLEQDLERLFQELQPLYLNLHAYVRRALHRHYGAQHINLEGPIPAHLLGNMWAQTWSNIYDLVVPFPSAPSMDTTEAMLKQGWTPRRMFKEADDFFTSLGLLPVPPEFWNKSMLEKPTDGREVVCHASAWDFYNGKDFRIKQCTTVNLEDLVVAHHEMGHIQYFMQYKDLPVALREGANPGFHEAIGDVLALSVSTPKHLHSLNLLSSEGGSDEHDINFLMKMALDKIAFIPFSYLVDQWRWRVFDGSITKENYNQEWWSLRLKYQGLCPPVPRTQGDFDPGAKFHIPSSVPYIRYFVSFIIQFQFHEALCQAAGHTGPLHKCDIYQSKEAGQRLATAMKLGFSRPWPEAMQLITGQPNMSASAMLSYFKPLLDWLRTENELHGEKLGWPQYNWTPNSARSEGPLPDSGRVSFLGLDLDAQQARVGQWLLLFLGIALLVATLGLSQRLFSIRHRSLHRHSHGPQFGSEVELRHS

| Molecule | incidence of restenosis vs placebo (ACE) | smooth muscle cell proliferation associated with balloon-catheter injury [1] | difference compared to the control group in any of the parameters measured ([2]; 10 μg/kg/hr infusion) | reduction in neointimal area vs control rats ([2]; 24 μg/kg/hr infusion) [%] | endothelial function as measured in the thoracic aorta position, proximal from the stent ([2]; Ang-(1-7) infusion) | Media Area [2, 3] [mm^2] | Neointimal Thickness [2, 3] [µm] | Percentage Stenosis ([2]; Ang-(1-7) infusion 24 μg/kg/hr for three weeks, p = 0.016 vs. control) [%] | Neointimal area ([2]; Ang-(1-7) infusion 24 μg/kg/hr for three weeks, p = 0.035 vs. control) |
| --- | --- | --- | --- | --- | --- | --- | --- | --- | --- |
| CCOC(=O)[C@H](CCc1ccccc1)N[C@H]1CCCN2CCC[C@@H](C(=O)O)N2C1=O [cilazapril] | no significant differences | – | – | – | – | – | – | – | – |
| Asp Arg Val Tyr lie His Pro (DRVYIHP; listed as Homo sapiens) [Ang-(1-7)] | – | inhibited | did not show any significant difference | 27 | improved endothelial function | 0.40 ± 0.05 | 111 ± 8 | 10.4 ± 1.0 | 0.51 ± 0.05* mm^2 |
